Assay results reported in ChEMBL document CHEMBL1201862, “PubChem BioAssay data set” (2004).
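96-well plates; 48 h exposure; 5 concentrations. Endpoints by linear interpolation between flanking doses. Not reached: highest tested concentration assigned. GI50 is the concentration that inhibits growth by half.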 The source made the active and inactive calls. Cut-off read from the data, not from the text of the source: active = GI50 up to about 1.1 µM and inactive = higher.

Experiments:
Assay in all cases: inhibition of tumour cell growth, NCI panel, 48 h
HT-29 = test system: HT-29
Hs-578T = test system: Hs-578T
HCC 2998 = test system: HCC 2998
TK-10 = test system: TK-10
NCI-H460 = test system: NCI-H460
SNB-19 = test system: SNB-19
EKVX = test system: EKVX
U-251 = test system: U-251
NCI-H23 = test system: NCI-H23
HCT-15 = test system: HCT-15
NCI-H226 = test system: NCI-H226
T47D = test system: T47D
SF-295 = test system: SF-295
COLO 205 = test system: COLO 205
MDA-MB-435 = test system: MDA-MB-435
CAKI-1 = test system: CAKI-1
SK-MEL-2 = test system: SK-MEL-2
NCI/ADR-RES = test system: NCI/ADR-RES
NCI-H522 = test system: NCI-H522
HOP-62 = test system: HOP-62

SMILES	GI50 (HT-29)	GI50 (Hs-578T)	GI50 (HCC 2998)	GI50 (TK-10)	GI50 (NCI-H460)	GI50 (SNB-19)	GI50 (EKVX)	GI50 (U-251)	GI50 (NCI-H23)	GI50 (HCT-15) [µM]	GI50 (NCI-H226)	GI50 (T47D)	GI50 (SF-295)	GI50 (COLO 205)	GI50 (MDA-MB-435)	GI50 (CAKI-1)	GI50 (SK-MEL-2)	GI50 (NCI/ADR-RES)	GI50 (NCI-H522)	GI50 (HOP-62)
CC(=O)c1ccc2c(c1)CC1(C2)Cc2cc3c(cc2C1)C(=O)CC3 (stereo not given)	1.07 µM (active)	5.73 µM (inactive)	0.91 µM (active)	9.35 µM (inactive)	0.453 µM (active)	1.67 µM (inactive)	6 µM (inactive)	1.8 µM (inactive)	3.06 µM (inactive)	1.08	0.31 µM (active)	3.33 µM (inactive)	0.594 µM (active)	0.344 µM (active)	0.242 µM (active)	2.03 µM (inactive)	0.356 µM (active)	1.57 µM (inactive)	1.93 µM (inactive)	2.67 µM (inactive)
CNC(=S)N/N=C/c1ccc([N+](=O)[O-])s1	3.13 µM (inactive)	> 10 µM (inactive)	8.15 µM (inactive)	> 10 µM (inactive)	6.67 µM (inactive)	> 10 µM (inactive)	> 10 µM (inactive)	> 10 µM (inactive)	> 10 µM (inactive)	> 10	> 10 µM (inactive)	> 10 µM (inactive)	> 10 µM (inactive)	1.81 µM (inactive)	> 10 µM (inactive)	> 10 µM (inactive)	> 10 µM (inactive)	> 10 µM (inactive)	> 10 µM (inactive)	> 10 µM (inactive)
N#CC(NC12CC3CC(CC(C3)C1)C2)c1ccc2c(c1)OCO2 (stereo not given)	> 100 µM (inactive)	> 100 µM (inactive)	> 100 µM (inactive)	> 100 µM (inactive)	> 100 µM (inactive)	> 100 µM (inactive)	> 100 µM (inactive)	> 100 µM (inactive)	> 100 µM (inactive)	> 100	> 100 µM (inactive)	> 100 µM (inactive)	> 100 µM (inactive)	> 100 µM (inactive)	> 100 µM (inactive)	> 100 µM (inactive)	> 100 µM (inactive)	> 100 µM (inactive)	> 100 µM (inactive)	> 100 µM (inactive)
C=C1CC(Cn2cc(C)c(=O)[nH]c2=O)(c2ccc(Cl)cc2)OC1=O (stereo not given)	1.69 µM (inactive)	6.58 µM (inactive)	3.8 µM (inactive)	1.68 µM (inactive)	15.8 µM (inactive)	23.1 µM (inactive)	11.9 µM (inactive)	16.2 µM (inactive)	3.3 µM (inactive)	0.867	13.4 µM (inactive)	2.08 µM (inactive)	9.64 µM (inactive)	1.42 µM (inactive)	3.85 µM (inactive)	1.83 µM (inactive)	2.12 µM (inactive)	3.98 µM (inactive)	0.594 µM (active)	15.8 µM (inactive)
COc1cc2oc3cc(=O)cc4oc(-c5ccccc5)cc(c2c2c1CCC(c1ccccc1)O2)c43 (stereo not given)	20.9 µM (inactive)	85.9 µM (inactive)	34.2 µM (inactive)	26.6 µM (inactive)	27.5 µM (inactive)	63 µM (inactive)	65.6 µM (inactive)	43.1 µM (inactive)	62.8 µM (inactive)	20.4	> 100 µM (inactive)	17.7 µM (inactive)	19.1 µM (inactive)	18.8 µM (inactive)	22.7 µM (inactive)	15.7 µM (inactive)	33 µM (inactive)	> 100 µM (inactive)	34.8 µM (inactive)	41 µM (inactive)
CC(C)(C)c1cc(C(C)(C)C)c(P=C(Cl)Cl)c(C(C)(C)C)c1 (stereo not given)	> 100 µM (inactive)	> 100 µM (inactive)	> 100 µM (inactive)	> 100 µM (inactive)	> 100 µM (inactive)	> 100 µM (inactive)	> 100 µM (inactive)	> 100 µM (inactive)	> 100 µM (inactive)	> 100	> 100 µM (inactive)	> 100 µM (inactive)	> 100 µM (inactive)	> 100 µM (inactive)	> 100 µM (inactive)	> 100 µM (inactive)	> 100 µM (inactive)	> 100 µM (inactive)	> 100 µM (inactive)	> 100 µM (inactive)
